Where two headings read alike, the source gives them in different places.
How the values were obtained:
[1] = test system: HCV replication (SGR); test: microbe, parasite or virus in culture; type: cell-based; conditions: Hepatitis C virus
[2] = test system: HCV replication organelle (DMVs); type: cell-based, Homo sapiens; conditions: 5×EC90, 24 hours post-transfection
[3] = test system: HCVcc (J6/JFH1-RLuc); test: microbe, parasite or virus in culture; type: cell-based, Hepatitis C Virus; conditions: for IC50: Hepatitis C virus; for Effect on HCVcc infection at single dose: 72 h
[4] = molecular target: T1, CypB (Homo sapiens, UniProt P23284); type: cell-based; conditions: Huh7 cells, 1 μM
T1 construct: endogenous in cells; host or cells: Huh7 cells

[5] = molecular target: T2, CypA (Homo sapiens, UniProt P62937); type: cell-based
T2 construct: endogenous in cells; host or cells: Huh7 and Huh7.5 cells

[6] = test system: HIV-1 (GFP); test: Infection of U87 cells with HIV-1 (GFP), titration of inhibitors; type: cell-based; conditions: for IC50: Human immunodeficiency virus 1, U-87 MG; for Potency relative to CsA: U87 cells, HIV-1 (GFP)
Description: FIG. 27: As explained in Example 3, this figure illustrates: in panel A, infection of U87 cells with HIV-1 (GFP), with a titration of inhibitors from 10 μm-0.04 μM (n=2±SEM), the vertical axis in each graph representing infectivity as a % of DMSO control; in panel B, Western blot of CypA in Huh7 cells 48 hrs after treatment with and without JW4-10.
Also used as a control in the experiments (see FIG. 27A) was SmBz ([Sarcosine-3(4-methylbenzoate)]-CsA). SmBz is disclosed in Malouitre et al. Biochem J. 2009 Dec. 14; 425(1):137-48. The anti HIV activity of SmBz is described in Rasaiyaah et al. Nature, 2013. 503(7476): p. 402-5.

[7] = test system: IRF1 target genes; type: cell-based, Homo sapiens; conditions: HCV-replicating Huh7 cells, 5 μM, 48 hpe
[8] = molecular target: T3, CypD (Homo sapiens, UniProt P30405); type: cell-based; conditions: Huh7 cells, 1 μM, 24 hours
T3 construct: endogenous in cells; host or cells: Huh7 cells

[9] = test system: IFN-β mRNA; type: cell-based, Homo sapiens; conditions: HCV-replicating Huh7 cells, 5 μM, 48 h
[10] = Huh7.5, Huh7.5, read-out: IC50 Replication (SGR)
[11] = Huh7.5-CTRL, read-out: IC50 Replication (SGR)
[12] = Huh-7, Huh7, read-out: IC50 Replication (SGR)
[13] = Huh-7, Huh7 MAVS KO, read-out: IC50 Replication (SGR)
[14] = Huh-7, Huh7 NT c7, read-out: IC50 Replication (SGR)
[15] = Huh-7, read-out: IC50 Replication (SGR), Huh7 MAVS KO + C508R
[16] = Huh7.5, read-out: IC50 HCVcc infection, Huh7.5
[17] = Huh-7, read-out: IC50 HCVcc infection, Huh7 NT c7

T2 sequence (P62937 whole entry): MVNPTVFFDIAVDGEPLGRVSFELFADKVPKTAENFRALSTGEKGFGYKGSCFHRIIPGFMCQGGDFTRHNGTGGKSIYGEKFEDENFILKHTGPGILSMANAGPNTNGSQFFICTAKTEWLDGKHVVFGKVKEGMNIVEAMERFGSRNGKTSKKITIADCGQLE
T1 sequence (P23284 34-216): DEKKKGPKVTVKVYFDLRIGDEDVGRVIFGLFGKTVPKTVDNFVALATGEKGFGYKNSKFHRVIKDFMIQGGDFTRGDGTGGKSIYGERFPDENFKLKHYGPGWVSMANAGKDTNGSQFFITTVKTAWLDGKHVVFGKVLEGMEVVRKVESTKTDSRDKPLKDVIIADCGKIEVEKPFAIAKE
T3 sequence (P30405 30-207): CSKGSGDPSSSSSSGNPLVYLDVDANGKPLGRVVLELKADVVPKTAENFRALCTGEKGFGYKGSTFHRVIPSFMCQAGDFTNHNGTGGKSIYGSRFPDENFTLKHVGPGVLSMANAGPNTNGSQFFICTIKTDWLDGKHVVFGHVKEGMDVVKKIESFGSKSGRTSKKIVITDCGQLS

Row | SMILES | IC50 [1, 10] [nM] | IC50 [1, 11] [nM] | IC50 [1, 12] [nM] | IC50 [1, 13] [nM] | IC50 [1, 14] [nM] | IC50 [1, 15] [nM] | IC50 [3, 16] [nM] | IC50 [3, 17] [nM] | IC50 [6] [nM] | Induction of IFN-β expression [9] | Potency relative to CsA [6] | other results
1 | CC[C@@H]1NC(=O)[C@H]([C@H](O)[C@H](C)C/C=C/CCCCC(=O)N[C@H](C(=O)N2C[C@H](O)C[C@H]2C(=O)N[C@@H](C)c2ccc(-c3scnc3C)cc2)C(C)(C)C)N(C)C(=O)[C@H](C(C)C)N(C)C(=O)[C@H](CC(C)C)N(C)C(=O)[C@H](CC(C)C)N(C)C(=O)[C@@H](C)NC(=O)[C@H](C)NC(=O)[C@H](CC(C)C)N(C)C(=O)[C@H](C(C)C)NC(=O)[C@H](CC(C)C)N(C)C(=O)CN(C)C1=O [CsA-Prtc1, [Gly-(1S,2R,E)-10-amido (E3 ligase ligand)-1-hydroxy-2-methyloct-4-ene]^1 CsA] | 55 ± 7 | 70 ± 13 | 16 ± 2 | 10 ± 1 | 9 ± 1 | 8 ± 1 | 14 ± 3 | 12 ± 2 | 90 ± 130 | not | – | Number and size of DMVs [2]: significant reduction in the number and size of DMVs; IC50 ([3]; Huh-7, read-out: IC50 HCVcc infection, Huh7): 3 ± 1 nM; Effect on HCVcc infection at single dose ([3]; Huh7, 1 μM): completely inhibited HCVcc infection; Effect on HCVcc infection at single dose ([3]; Huh7.5, 1 μM): completely inhibited HCVcc infection; CypB protein expression ([4]; 24 hours): minimal impact; CypB protein expression ([4]; 48 hours): CypB degradation was observed; Proteasome dependence of CypA degradation ([5]; 1 μM with or without MG132 (10 μM), 24 hours): proteasome-dependent; CypA degradation ([5]; Huh7 and Huh7.5 cells, 1 μM, 48 h): degradation of CypA; CypA degradation ([5]; Huh7 cells, 48 hrs after treatment (FIG. 27B)): degradation of CypA; Induction of IRF1 target gene expression [7]: did not induce expression of IRF1 target genes; CypD protein expression [8]: minimal impact
2 | CC[C@@H]1NC(=O)[C@H]([C@H](O)[C@H](C)C/C=C/CCCn2ccnc2)N(C)C(=O)[C@H](C(C)C)N(C)C(=O)[C@H](CC(C)C)N(C)C(=O)[C@H](CC(C)C)N(C)C(=O)[C@@H](C)NC(=O)[C@H](C)NC(=O)[C@H](CC(C)C)N(C)C(=O)[C@H](C(C)C)NC(=O)[C@H](CC(C)C)N(C)C(=O)CN(C)C1=O [CsA-like, [Gly-(1S,2R,E)-8-(1H-imidazole-1-yl)-1-hydroxy-2-methyloct-4-ene]^1 CsA] | 1370 ± 197 | 527 ± 154 | 266 ± 37 | 160 ± 23 | 184 ± 26 | 141 ± 28 | 316 ± 83 | 123 ± 23 | – | capable of inducing IFN-β expression | – | IC50 ([1]; Huh7.5-Mda5, read-out: IC50 Replication (SGR)): 950 ± 247 nM; IC50 ([1]; Huh7.5-RIG-I/Mda5, read-out: IC50 Replication (SGR)): 1230 ± 298 nM; IC50 ([1]; Huh7.5-RIG-I, read-out: IC50 Replication (SGR)): 686 ± 181 nM; IC50 ([1]; Huh-7, Huh7 IRF1 KO c10, read-out: IC50 Replication (SGR)): 1220 ± 224 nM; IC50 ([1]; Huh-7, Huh7 IRF1 KO c11, read-out: IC50 Replication (SGR)): 1590 ± 284 nM; IC50 ([1]; Huh-7, Huh7 PKR KO c1, read-out: IC50 Replication (SGR)): 971 ± 186 nM; IC50 ([1]; Huh-7, Huh7 PKR KO c4, read-out: IC50 Replication (SGR)): 1250 ± 327 nM; IC50 ([3]; Huh-7, read-out: IC50 HCVcc infection, Huh7 PKR KO c4): 433 ± 101 nM
3 | CC[C@@H]1NC(=O)[C@H]([C@H](O)[C@H](C)C/C=C/CCOCCOCCOCCN[C@H](C(=O)N2C[C@H](O)C[C@H]2C(=O)N[C@@H](C)c2ccc(-c3scnc3C)cc2)C(C)(C)C)N(C)C(=O)[C@H](C(C)C)N(C)C(=O)[C@H](CC(C)C)N(C)C(=O)[C@H](CC(C)C)N(C)C(=O)[C@@H](C)NC(=O)[C@H](C)NC(=O)[C@H](CC(C)C)N(C)C(=O)[C@H](C(C)C)NC(=O)[C@H](CC(C)C)N(C)C(=O)CN(C)C1=O [JW4-20] | – | – | – | – | – | – | – | – | 120 ± 50 | – | increased potency | –
4 | CC[C@@H]1NC(=O)[C@H]([C@H](O)[C@H](C)C/C=C/CCCN2CCN(CC(=O)N[C@H](C(=O)N3C[C@H](O)C[C@H]3C(=O)N[C@@H](C)c3ccc(-c4scnc4C)cc3)C(C)(C)C)CC2)N(C)C(=O)[C@H](C(C)C)N(C)C(=O)[C@H](CC(C)C)N(C)C(=O)[C@H](CC(C)C)N(C)C(=O)[C@@H](C)NC(=O)[C@H](C)NC(=O)[C@H](CC(C)C)N(C)C(=O)[C@H](C(C)C)NC(=O)[C@H](CC(C)C)N(C)C(=O)CN(C)C1=O [JW4-21] | – | – | – | – | – | – | – | – | 700 ± 80 | – | decreased potency | –
